Square brackets hold non-standard residues; d marks the D form. Peptide text beside a SMILES is read from it. * marks the point of attachment. Cys(free,S-linked) = N[C@@H](CS*)C(=O)O; d(hLeu) = CC(C)CC[C@@H](N)C(=O)O; dCha = N[C@H](CC1CCCCC1)C(=O)O; dPhg = N[C@@H](C(=O)O)c1ccccc1; dTle = CC(C)(C)[C@@H](N)C(=O)O; dAbu = CC[C@@H](N)C(=O)O
How the values were obtained:
[1] = system: rat peritoneal mast cells; assay: In vitro histamine release in rat peritoneal mast cells (histamine ELISA); format: cell-based; conditions: for Relative fold of histamine release in vitro: test compound final concentration 10 μM, 15 min at 37° C., relative to PBS buffer (1.00)
Procedure: To evaluate the in vitro histamine release levels induced by some of the test example compounds, rat peritoneal mast cells were collected by lavaging rat peritoneum with a lavage buffer (cold HBSS+25 mM HEPES containing heparin 5 U/mL, pH 7.4). After collection, the cells were centrifuged, and the lavage buffer was discarded. The cells were resuspended and washed twice with a stimulation buffer (HBSS+25 mM HEPES+1 mM CaCl2), pH 7.4). The cells were plated at a density of 10^5 cell/well (200 μL/well) and incubated at 37° C. for 15 min with positive control compound 48/80 (final concentration: 4 μg/mL), test example compounds (final concentration: 10 μM) or vehicle control. The cells were centrifuged, and cell supernatant was collected and tested for histamine concentration according to LDN Histamine ELISA kit (BAE-1000) instructions.

[2] = biological target: T1, human calcium-sensing receptor (CaSR) (Homo sapiens, UniProt P41180); assay: Agonist activity on human calcium-sensing receptor (IP-One HTRF in stably transfected HEK293/CaSR cells); format: cell-based; conditions: HEK293/CaSR cells, IP-One production, 60 min at 37° C., CaCl2 1.2 mM; read-out: EC50 for calcium-sensing receptor
T1 construct: host or cells: HEK293
T1 sequence (P41180 20-1078): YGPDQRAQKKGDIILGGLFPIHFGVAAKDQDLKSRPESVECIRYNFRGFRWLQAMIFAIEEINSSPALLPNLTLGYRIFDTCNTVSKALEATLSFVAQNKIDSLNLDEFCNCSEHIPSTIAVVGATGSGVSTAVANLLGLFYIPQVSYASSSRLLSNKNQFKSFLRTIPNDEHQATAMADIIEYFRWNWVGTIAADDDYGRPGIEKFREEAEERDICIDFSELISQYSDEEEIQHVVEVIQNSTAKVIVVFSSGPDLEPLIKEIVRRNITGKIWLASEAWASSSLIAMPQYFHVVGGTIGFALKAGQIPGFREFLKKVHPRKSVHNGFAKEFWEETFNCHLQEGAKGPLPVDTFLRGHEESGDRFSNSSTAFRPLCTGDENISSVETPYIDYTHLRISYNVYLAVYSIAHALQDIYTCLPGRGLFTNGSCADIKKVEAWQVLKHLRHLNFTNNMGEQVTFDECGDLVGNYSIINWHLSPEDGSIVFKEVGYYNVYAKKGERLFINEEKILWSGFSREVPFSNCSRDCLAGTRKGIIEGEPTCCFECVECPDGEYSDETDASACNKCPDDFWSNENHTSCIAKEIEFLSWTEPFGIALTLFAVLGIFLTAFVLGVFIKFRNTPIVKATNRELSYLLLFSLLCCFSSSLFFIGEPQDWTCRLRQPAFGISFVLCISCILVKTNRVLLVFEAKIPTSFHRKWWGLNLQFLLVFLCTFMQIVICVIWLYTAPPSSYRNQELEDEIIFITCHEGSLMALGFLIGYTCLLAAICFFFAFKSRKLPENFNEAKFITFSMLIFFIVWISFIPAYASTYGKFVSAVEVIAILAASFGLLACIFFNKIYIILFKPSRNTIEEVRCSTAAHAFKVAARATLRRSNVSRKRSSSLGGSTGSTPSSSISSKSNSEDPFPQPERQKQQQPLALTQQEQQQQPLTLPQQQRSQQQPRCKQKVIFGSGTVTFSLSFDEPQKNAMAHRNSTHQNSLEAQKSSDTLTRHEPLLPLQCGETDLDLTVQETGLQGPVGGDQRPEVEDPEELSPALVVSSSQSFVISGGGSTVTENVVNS
Procedure: 3.1.1 Objective: The test example is intended to measure the agonist activity of compounds 1-38 on the human calcium-sensing receptor (CaSR).
Stably transfected HEK293/CaSR cells (source: Pharmaron) were cultured in a complete medium (composition: DMEM, high glucose+10% FBS+2 mM GlutaMAX+1× Penicillin-Streptomycin+200 μg/mL Hygromycin B) and incubated at 37° C./5% CO2 till 70%-90% cell confluence. The cells were digested with TrypLE, inoculated into 384-well cell culture plates, and cultured overnight at 37° C./5% CO2. After buffer exchange, stimulation buffer (HEPES 10 mM, MgCl2 0.5 mM, KCl 4.2 mM, NaCl 146 mM, glucose 5.5 mM, LiCl 50 mM, CaCl2 1.2 mM) and various concentrations of the test example compounds were added and incubated at 37° C. for 60 min. Production of IP-One in cells was detected according to the procedures in the Cisbio IP-One Tb kit instructions. The EC50 values of various test example compounds in influencing human calcium-sensing receptor was calculated by software after the raw data of the example compounds were collected, so as to evaluate the agonist activity of the example compounds on human calcium-sensing receptor.
HTRF signal was read by an EnVision detector with an excitation wavelength of 320 nm and emission wavelengths of 620 nm and 665 nm. The signal ratio (665 nm/620 nm×10,000) was calculated and fitted non-linearly to the sample concentration in GraphPad Prism 6 using a four-parameter equation to give EC50 values of the test example compounds 1-38.

Compound | Relative fold of histamine release in vitro [1] | EC50 [2] [µM] | histamine release levels in rat peritoneal mast cells in vitro relative to etelcalcetide ([1]; 10 μM, comparison with etelcalcetide)
CC(=O)N[C@H](CSSC[C@H](N)C(=O)O)C(=O)N[C@H](CCCNC(=N)N)C(=O)N[C@H](CCCNC(=N)N)C(=O)N[C@H](CCC(C)C)C(=O)N[C@H](CCCNC(=N)N)C(=O)NCC(=O)N[C@H](CCCNC(=N)N)C(N)=O [Compound 34, Ac-c(C)-r-r-(D-hLeu)-r-G-r-NH2] (Ac-[dC](Cys(free,S-linked))[dR][dR][d(hLeu)][dR]G[dR]-NH2) | 2.28 | 12.2 | –
CC(=O)N[C@H](CSSC[C@H](N)C(=O)O)C(=O)N[C@H](CCCNC(=N)N)C(=O)N[C@H](CCCNC(=N)N)C(=O)N[C@@H](C(=O)N[C@H](CCCNC(=N)N)C(=O)N[C@H](C)C(=O)N[C@H](CCCNC(=N)N)C(N)=O)C(C)(C)C [Compound 18, Ac-c(C)-r-r-(D-Tle)-r-a-r-NH2] (Ac-[dC](Cys(free,S-linked))[dR][dR][dTle][dR][dA][dR]-NH2) | 1.24 | 13.4 | –
CC(=O)N[C@H](CSSC[C@H](N)C(=O)O)C(=O)N[C@H](CO)C(=O)N[C@H](CCCNC(=N)N)C(=O)N[C@H](CCCNC(=N)N)C(=O)N[C@H](CCCNC(=N)N)C(=O)N[C@H](CO)C(=O)N[C@H](CCCNC(=N)N)C(N)=O [Compound 6, Ac-c(C)-s-r-r-r-s-r-NH2] (Ac-[dC](Cys(free,S-linked))[dS][dR][dR][dR][dS][dR]-NH2) | 1.65 | 11.6 | –
CC(=O)N[C@H](CSSC[C@H](N)C(=O)O)C(=O)N[C@H](CCCNC(=N)N)C(=O)N[C@H](CCCNC(=N)N)C(=O)N[C@H](CC1CCCCC1)C(=O)N[C@H](CCCNC(=N)N)C(=O)N[C@H](C)C(=O)N[C@H](CCCNC(=N)N)C(N)=O [Compound 21, Ac-c(C)-r-r-(D-Cha)-r-a-r-NH2] (Ac-[dC](Cys(free,S-linked))[dR][dR][dCha][dR][dA][dR]-NH2) | 3.42 | 5.59 | –
CC(=O)N[C@H](CSSC[C@H](N)C(=O)O)C(=O)N[C@@H](C(=O)N[C@H](CCCNC(=N)N)C(=O)N[C@H](CCCNC(=N)N)C(=O)N[C@H](CCCNC(=N)N)C(=O)N[C@H](C)C(=O)N[C@H](CCCNC(=N)N)C(N)=O)c1ccccc1 [Compound 1, Ac-c(C)-(D-Phg)-r-r-r-a-r-NH2] (Ac-[dC](Cys(free,S-linked))[dPhg][dR][dR][dR][dA][dR]-NH2) | 1.50 | 15.7 | –
CC(=O)N[C@H](CSSC[C@H](N)C(=O)O)C(=O)N[C@H](CCCNC(=N)N)C(=O)N[C@H](CCCNC(=N)N)C(=O)N[C@H](CO)C(=O)N[C@H](CCCNC(=N)N)C(=O)NCC(=O)N[C@H](CCCNC(=N)N)C(N)=O [Compound 22, Ac-c(C)-r-r-s-r-G-r-NH2] (Ac-[dC](Cys(free,S-linked))[dR][dR][dS][dR]G[dR]-NH2) | 1.63 | 15.4 | –
CC(=O)N[C@H](CSSC[C@H](N)C(=O)O)C(=O)N[C@H](CO)C(=O)N[C@H](CCCNC(=N)N)C(=O)N[C@H](CCCNC(=N)N)C(=O)N[C@H](CCCNC(=N)N)C(=O)NCC(=O)N[C@H](CCCNC(=N)N)C(N)=O [Compound 8, Ac-c(C)-s-r-r-r-G-r-NH2] (Ac-[dC](Cys(free,S-linked))[dS][dR][dR][dR]G[dR]-NH2) | 1.50 | 14.3 | –
CC(=O)N[C@H](CSSC[C@H](N)C(=O)O)C(=O)N[C@H](CCCNC(=N)N)C(=O)N[C@H](CCCNC(=N)N)C(=O)N[C@@H](C(=O)N[C@H](CCCNC(=N)N)C(=O)N[C@H](C)C(=O)N[C@H](CCCNC(=N)N)C(N)=O)c1ccccc1 [Compound 11, Ac-c(C)-r-r-(D-Phg)-r-a-r-NH2] (Ac-[dC](Cys(free,S-linked))[dR][dR][dPhg][dR][dA][dR]-NH2) | 1.11 | 15.7 | –
CC(=O)N[C@H](CSSC[C@H](N)C(=O)O)C(=O)N[C@H](Cc1c[nH]cn1)C(=O)N[C@H](CCCNC(=N)N)C(=O)N[C@H](CCCNC(=N)N)C(=O)N[C@H](CCCNC(=N)N)C(=O)N[C@H](CO)C(=O)N[C@H](CCCNC(=N)N)C(N)=O [Compound 10, Ac-c(C)-h-r-r-r-s-r-NH2] (Ac-[dC](Cys(free,S-linked))[dH][dR][dR][dR][dS][dR]-NH2) | 3.66 | 3.52 | –
CC(=O)N[C@H](CSSC[C@H](N)C(=O)O)C(=O)N[C@H](Cc1c[nH]cn1)C(=O)N[C@H](CCCNC(=N)N)C(=O)N[C@H](CCCNC(=N)N)C(=O)N[C@H](CCCNC(=N)N)C(=O)NCC(=O)N[C@H](CCCNC(=N)N)C(N)=O [Compound 7, Ac-c(C)-h-r-r-r-G-r-NH2] (Ac-[dC](Cys(free,S-linked))[dH][dR][dR][dR]G[dR]-NH2) | 2.24 | 18.6 | –
CC(=O)N[C@H](CSSC[C@H](N)C(=O)O)C(=O)N[C@H](Cc1ccc(O)cc1)C(=O)N[C@H](CCCNC(=N)N)C(=O)N[C@H](CCCNC(=N)N)C(=O)N[C@H](CCCNC(=N)N)C(=O)N[C@H](C)C(=O)N[C@H](CCCNC(=N)N)C(N)=O [Compound 4, Ac-c(C)-(D-Tyr)-r-r-r-a-r-NH2] (Ac-[dC](Cys(free,S-linked))[dY][dR][dR][dR][dA][dR]-NH2) | 3.94 | 6.92 | –
CC(=O)N[C@H](CSSC[C@H](N)C(=O)O)C(=O)N[C@H](CCCNC(=N)N)C(=O)N[C@H](CCCNC(=N)N)C(=O)N[C@H](Cc1c[nH]cn1)C(=O)N[C@H](CCCNC(=N)N)C(=O)N[C@H](CO)C(=O)N[C@H](CCCNC(=N)N)C(N)=O [Compound 27, Ac-c(C)-r-r-h-r-s-r-NH2] (Ac-[dC](Cys(free,S-linked))[dR][dR][dH][dR][dS][dR]-NH2) | 2.23 | 10.8 | –
CC[C@@H](NC(=O)[C@@H](CCCNC(=N)N)NC(=O)[C@@H](CCCNC(=N)N)NC(=O)[C@@H](CSSC[C@H](N)C(=O)O)NC(C)=O)C(=O)N[C@H](CCCNC(=N)N)C(=O)NCC(=O)N[C@H](CCCNC(=N)N)C(N)=O [Compound 32, Ac-c(C)-r-r-(D-Abu)-r-G-r-NH2] (Ac-[dC](Cys(free,S-linked))[dR][dR][dAbu][dR]G[dR]-NH2) | 1.41 | 13.1 | reduction in histamine release levels
CC(=O)N[C@H](CSSC[C@H](N)C(=O)O)C(=O)N[C@H](CCCNC(=N)N)C(=O)N[C@H](CCCNC(=N)N)C(=O)N[C@H](CCC(C)C)C(=O)N[C@H](CCCNC(=N)N)C(=O)N[C@H](CO)C(=O)N[C@H](CCCNC(=N)N)C(N)=O [Compound 33, Ac-c(C)-r-r-(D-hLeu)-r-s-r-NH2] (Ac-[dC](Cys(free,S-linked))[dR][dR][d(hLeu)][dR][dS][dR]-NH2) | 2.50 | 5.03 | –

— US20230041996A1, “CALCIUM-SENSING RECEPTOR AGONIST COMPOUND AND APPLICATION THEREOF” (BEIJING TUO JIE BIOPHARMACEUTICAL CO. LTD., priority 2019, published 2023)
